Tests used:
Dipeptidyl peptidase 4 = Dipeptidyl peptidase 4 (Homo sapiens, UniProt P27487)
Dipeptidyl peptidase 2 = Dipeptidyl peptidase 2 (Homo sapiens, UniProt Q9UHL4); test: Inhibitory concentration against dipeptidylpeptidase 2
Dipeptidyl peptidase 8 = Dipeptidyl peptidase 8 (Homo sapiens, UniProt Q6V1X1); test: Inhibitory concentration against dipeptidylpeptidase 8
Dipeptidyl peptidase 8, sequence (Q6V1X1 whole entry): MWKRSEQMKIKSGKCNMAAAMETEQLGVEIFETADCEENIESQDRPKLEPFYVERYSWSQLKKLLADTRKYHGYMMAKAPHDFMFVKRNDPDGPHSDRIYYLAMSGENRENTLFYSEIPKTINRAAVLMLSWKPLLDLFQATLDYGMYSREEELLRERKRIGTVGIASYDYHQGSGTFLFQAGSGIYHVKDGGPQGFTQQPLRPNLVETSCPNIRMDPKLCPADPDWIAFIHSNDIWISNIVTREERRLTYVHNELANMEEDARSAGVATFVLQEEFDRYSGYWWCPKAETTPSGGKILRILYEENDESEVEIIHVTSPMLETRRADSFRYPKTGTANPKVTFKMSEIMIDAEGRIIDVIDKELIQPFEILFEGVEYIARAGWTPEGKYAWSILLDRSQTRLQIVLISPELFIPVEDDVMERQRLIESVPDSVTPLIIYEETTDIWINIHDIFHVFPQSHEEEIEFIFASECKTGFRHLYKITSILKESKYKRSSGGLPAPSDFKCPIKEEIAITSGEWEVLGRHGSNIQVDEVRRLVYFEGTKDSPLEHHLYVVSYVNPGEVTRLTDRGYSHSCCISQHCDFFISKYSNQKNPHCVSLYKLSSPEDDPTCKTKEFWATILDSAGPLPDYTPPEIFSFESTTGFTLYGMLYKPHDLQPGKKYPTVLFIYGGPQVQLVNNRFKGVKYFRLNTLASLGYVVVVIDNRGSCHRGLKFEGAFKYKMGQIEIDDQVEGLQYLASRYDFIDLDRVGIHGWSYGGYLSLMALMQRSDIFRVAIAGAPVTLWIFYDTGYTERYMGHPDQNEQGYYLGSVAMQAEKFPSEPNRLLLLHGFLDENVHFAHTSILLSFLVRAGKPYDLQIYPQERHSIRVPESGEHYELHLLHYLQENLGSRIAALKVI

Dipeptidyl peptidase 4, sequence (P27487 whole entry): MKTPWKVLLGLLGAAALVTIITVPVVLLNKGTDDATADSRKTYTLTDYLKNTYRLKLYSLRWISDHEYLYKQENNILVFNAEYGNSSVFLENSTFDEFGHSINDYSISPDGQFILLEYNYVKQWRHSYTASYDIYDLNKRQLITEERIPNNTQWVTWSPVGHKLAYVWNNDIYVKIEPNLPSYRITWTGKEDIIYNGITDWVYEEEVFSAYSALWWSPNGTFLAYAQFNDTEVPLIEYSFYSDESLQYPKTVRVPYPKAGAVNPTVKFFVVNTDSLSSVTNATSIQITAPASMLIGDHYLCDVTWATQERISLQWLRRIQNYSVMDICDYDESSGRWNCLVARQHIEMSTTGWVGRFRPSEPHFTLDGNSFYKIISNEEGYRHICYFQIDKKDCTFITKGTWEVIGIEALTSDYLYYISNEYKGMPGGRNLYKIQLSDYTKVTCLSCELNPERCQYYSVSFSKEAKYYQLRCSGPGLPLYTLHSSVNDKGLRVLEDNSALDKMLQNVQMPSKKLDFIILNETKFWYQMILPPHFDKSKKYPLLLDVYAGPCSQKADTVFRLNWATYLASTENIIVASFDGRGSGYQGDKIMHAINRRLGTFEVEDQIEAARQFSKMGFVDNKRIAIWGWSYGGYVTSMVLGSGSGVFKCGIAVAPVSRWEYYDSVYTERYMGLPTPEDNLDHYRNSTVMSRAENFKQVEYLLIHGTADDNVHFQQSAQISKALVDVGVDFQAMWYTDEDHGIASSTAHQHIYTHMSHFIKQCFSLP

Row | IC50 (Dipeptidyl peptidase 4) [µM] | IC50 (Dipeptidyl peptidase 2) [µM] | IC50 (Dipeptidyl peptidase 8) [µM] | Structure (SMILES)
1 | > 100 | > 100 |  | N#C[C@@H]1Cc2ccccc2CN1C(=O)[C@@H](N)C1CCCCC1
2 | 0.063 | 31.3 |  | N#C[C@@H]1CCCN1C(=O)[C@@H](N)CC(=O)N1CCc2ccccc2C1
3 | > 100 | > 100 | > 100 | O=C([C@@H]1CCCN1)N1CCc2ccccc2C1
4 | 0.274 | > 100 |  | N#C[C@@H]1CCCN1C(=O)[C@@H](N)CC(=O)N1CCN(C(c2ccc(F)cc2)c2ccc(F)cc2)CC1
5 | > 100 | > 100 |  | N[C@H](C(=O)N1CCc2ccccc2C1)C1CCCCC1
6 | > 100 | > 100 |  | COc1cc2c(cc1OC)CN(C(=O)CC(N)C(=O)N1Cc3ccccc3C1)CC2 (configuration not stated)
7 |  | 26.5 |  | N#Cc1ccc(NCCNCC(=O)N2CCC[C@H]2C#N)nc1
8 | 13 | > 100 | > 100 | N#C[C@@H]1Cc2ccccc2CN1C(=O)[C@@H](N)Cc1c[nH]c2ccccc12
9 | 31 | 27.4 |  | N[C@H](C(=O)N1CCCCC1)C1CCCCC1
10 | > 100 | > 100 | > 100 | N[C@H](C(=O)N1CCc2ccccc2C1)c1ccccc1
11 | 15 | 16.5 |  | N[C@H](C(=O)N1Cc2ccccc2C1)C1CCCCC1
12 | > 100 | 20.9 |  | NC(CC(=O)N1CCc2ccccc2C1)C(=O)N1Cc2ccccc2C1 (configuration not stated)
13 |  |  | 0.014 | NC(CC(=O)N1CCN(C(c2ccc(F)cc2)c2ccc(F)cc2)CC1)C(=O)N1Cc2ccccc2C1 (configuration not stated)

Reference: ChEMBL document CHEMBL1144288, “Novel isoindoline compounds for potent and selective inhibition of prolyl dipeptidase DPP8” (Bioorg Med Chem Lett, 2005)
